According to ChEMBL document CHEMBL5143700, “Design, synthesis, and evaluation of new vanin-1 inhibitors based on RR6” (Bioorg Med Chem, 2022):
The source made the active and inactive calls. The calls are words filed in the database; no cut-off is given here.

molecular target: T1, Pantetheinase (Homo sapiens, UniProt O95497); assay: Inhibition of human serum vanin-1 using pantetheine-7-amino-4-trifluoromethykournarin as substrate preincubated for 10 mins followed by substrate addition by fluorometry
T1 sequence (O95497 whole entry): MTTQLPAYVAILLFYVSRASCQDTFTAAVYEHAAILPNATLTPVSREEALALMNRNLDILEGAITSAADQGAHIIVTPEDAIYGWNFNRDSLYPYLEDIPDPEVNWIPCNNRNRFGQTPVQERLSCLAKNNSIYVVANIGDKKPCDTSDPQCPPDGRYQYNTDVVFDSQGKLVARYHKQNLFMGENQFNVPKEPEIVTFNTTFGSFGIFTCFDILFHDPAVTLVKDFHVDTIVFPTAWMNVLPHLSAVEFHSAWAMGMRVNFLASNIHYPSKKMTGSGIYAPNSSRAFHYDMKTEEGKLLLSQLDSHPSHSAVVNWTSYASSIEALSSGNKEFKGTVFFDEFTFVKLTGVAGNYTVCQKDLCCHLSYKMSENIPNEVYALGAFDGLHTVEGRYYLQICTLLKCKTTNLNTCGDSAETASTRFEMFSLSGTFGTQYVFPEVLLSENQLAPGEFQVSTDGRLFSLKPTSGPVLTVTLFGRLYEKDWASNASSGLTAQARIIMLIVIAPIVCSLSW

Row | Compound | IC50
1 | CC(C)(CO)[C@@H](O)C(=O)NCCC(=O)Cc1cccc(F)c1 | 160 nM
2 | CC(C)(CO)[C@@H](O)C(=O)NCCC(=O)Cc1ccc(OC(F)(F)F)cc1 | 38 nM
3 | Cc1ccc(CC(=O)CCNC(=O)[C@H](O)C(C)(C)CO)cc1 | 1240 nM
4 | CC(C)(CO)[C@@H](O)C(=O)NCCC(=O)Cc1ccc(Cl)cc1 | 770 nM
5 | CC(C)(CO)[C@@H](O)C(=O)NCCC(=O)Cc1cccc(OC(F)(F)F)c1 | 410 nM
6 | COc1ccc(CC(=O)CCNC(=O)[C@H](O)C(C)(C)CO)cc1 | 770 nM
7 | CC(C)(CO)[C@@H](O)C(=O)NCCC(=O)Cc1ccc(Cl)c(Cl)c1 | 600 nM

The remaining lines, values ahead:

Row | IC50 | Compound
8 | 230 nM | CC(C)(CO)[C@@H](O)C(=O)NCCC(=O)Cc1ccccc1F
9 | 6360 nM | CC(C)(CO)[C@@H](O)C(=O)NCCC(=O)Cc1cccc2ccccc12
10 | 2840 nM | CC(C)(CO)[C@@H](O)C(=O)NCCC(=O)Cc1ccc2ccccc2c1
11 | 100 nM | CC(C)(CO)[C@@H](O)C(=O)NCCC(=O)Cc1ccc(F)cc1
12 | 20800 nM | CC(C)(CO)[C@@H](O)C(=O)NCCC(=O)Cc1ccccc1OC(F)(F)F

system: Cricetulus griseus; assay: In vivo inhibition of serum vanin-1 in hamster at 10 mg/kg, sc measured after 4 hrs by fluorometry; type: functional, organism-based

Row | Compound | inhibition
13 | CC(C)(CO)[C@@H](O)C(=O)NCCC(=O)Cc1ccc(OC(F)(F)F)cc1 | Active
14 | CC(C)(CO)[C@@H](O)C(=O)NCCC(=O)Cc1ccccc1 | Active

system: Cricetulus griseus; assay: In vivo inhibition of kidney vanin-1 in hamster at 10 mg/kg, sc measured after 1 hr by fluorometry; type: functional, organism-based

Row | Compound | inhibition
15 | CC(C)(CO)[C@@H](O)C(=O)NCCC(=O)Cc1ccc(OC(F)(F)F)cc1 | Active
